# Source: patent US20250179061A1 (SIRONAX LTD., priority 2022, published 2025)
# Counter-ions that a name gives are not always drawn. Like-named read-outs stand apart in the source and are kept apart here.
# System: HT-29 cells
# Experiment: HT-29 necroptosis cell viability assay (TNF-α/SMAC mimetic/zVAD-FMK, CellTiter-Glo)
# Type: cell-based
# Conditions: Homo sapiens
# Outline: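 HT-29 cells (~5,000/well, overnight) in FBS-free McCoy's 5A with TNF-α 10 ng/ml, SMAC mimetic 6 μM and zVAD-FMK 10 μM plus 10-point 1:3 compound titration, 20 h at 37°C. ATP measured by CellTiter-Glo luminescence; IC50 as geometric mean of duplicates.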
# [1] = HT-29, HT-29 necroptosis cell viability assay, class symbols for IC50, read-out: Activity
# [2] = HT-29, HT-29 necroptosis cell viability, IC50 class symbols, read-out: Activity
# [3] = HT-29 cells stimulated with TNF-α (10 ng/ml), SMAC mimetic (6 μM) and zVAD-FMK (10 μM), 20 hours, CellTiter-Glo ATP luminescence, geometric mean IC50 from 10 points, read-out: Activity
# [4] = HT-29, HT-29 cells, necroptosis induced by TNF-α/SMAC mimetic/zVAD-FMK, CellTiter-Glo, read-out: Activity (IC50 class)
SMILES,IC50 [1],IC50 [2],also measured
"CCOC(=O)c1nc(Oc2ccc(-n3ncn(Cc4c(F)cccc4F)c3=O)cc2F)n(C)c1C [Example 181, ethyl 2-(4-(4-(2,6-difluorobenzyl)-5-oxo-4,5-dihydro-1H-1,2,4-triazol-1-yl)-2-fluorophenoxy)-1,5-dimethyl-1H-imidazole-4-carboxylate]",100 to 1000 nM,–,–
"CC1(CO)CCN(c2cc(Oc3ccc(-n4ncn(Cc5c(F)cccc5F)c4=O)cc3)ccn2)C1 (stereo not drawn) [Example 265, 4-(2,6-difluorobenzyl)-2-(4-((2-(3-(hydroxymethyl)-3-methylpyrrolidin-1-yl)pyridin-4-yl)oxy)phenyl)-2,4-dihydro-3H-1,2,4-triazol-3-one]",–,100 to 1000 nM,–
"O=c1n(Cc2c(F)cccc2F)cnn1C1CCC(Oc2ccccc2)C1 (stereo not drawn) [Example 161, 4-(2,6-difluorobenzyl)-2-(3-phenoxycyclopentyl)-2,4-dihydro-3H-1,2,4-triazol-3-one]",1000 to 10000 nM,–,–
"N#CC12CC(Nc3cc(Oc4ccc(-n5ncn(Cc6c(F)cccc6F)c5=O)cc4Cl)c(F)cn3)(C1)C2 [Example 272, 3-((4-(2-chloro-4-(4-(2,6-difluorobenzyl)-5-oxo-4,5-dihydro-1H-1,2,4-triazol-1-yl)phenoxy)-5-fluoropyridin-2-yl)amino)bicyclo[1.1.1]pentane-1-carbonitrile]",–,< 100 nM,–
"Cn1c(C(C)(C)O)cnc1Oc1ccc(-n2ncn(Cc3c(F)cccc3F)c2=O)cc1F [Example 132, 4-(2,6-difluorobenzyl)-2-(3-fluoro-4-((5-(2-hydroxypropan-2-yl)-1-methyl-1H-imidazol-2-yl)oxy)phenyl)-2,4-dihydro-3H-1,2,4-triazol-3-one]",1000 to 10000 nM,–,–
"CCC(O)(CC)c1nc(C)c(Oc2ccc(-n3ncn(Cc4c(F)cccc4F)c3=O)cc2F)s1 [Example 581, 4-(2,6-difluorobenzyl)-2-(3-fluoro-4-((2-(3-hydroxypentan-3-yl)-4-methylthiazol-5-yl)oxy)phenyl)-2,4-dihydro-3H-1,2,4-triazol-3-one]",< 100 nM,–,–
"O=C1CC(n2ncn(Cc3ccccc3)c2=O)CCN1Cc1ccccc1 (stereo not drawn) [Example 522, 1-benzyl-4-(4-benzyl-5-oxo-4,5-dihydro-1H-1,2,4-triazol-1-yl)piperidin-2-one]",> 10000 nM,–,–
"COC(=O)c1nc(C)c(Oc2ccc(-n3ncn(Cc4c(F)cccc4C#N)c3=O)cc2F)s1 [Example 106, methyl 5-(4-(4-(2-cyano-6-fluorobenzyl)-5-oxo-4,5-dihydro-1H-1,2,4-triazol-1-yl)-2-fluorophenoxy)-4-methylthiazole-2-carboxylate]",–,–,IC50 [3]: < 100 nM
"Cc1nc(C(N)=O)sc1Oc1ncc(-n2nc3n(c2=O)[C@@H](c2ccccc2)CC3)cc1F (single isomer, unassigned) [Example 639]",–,–,IC50 [4]: 100 to 1000 nM
"COC(=O)c1nc(C)c(Oc2ccc(-n3nc4n(c3=O)C(c3ccccc3)CC4)cc2F)s1 (stereo not drawn) [Example 34, methyl 5-(2-fluoro-4-(3-oxo-5-phenyl-6,7-dihydro-3H-pyrrolo[2,1-c][1,2,4]triazol-2(5H)-yl)phenoxy)-4-methylthiazole-2-carboxylate]",–,–,IC50 [3]: 100 to 1000 nM
"O=C(CC1CC1)Nc1cc(Oc2ccc(-n3ncn(Cc4c(F)cccc4F)c3=O)cc2)ccn1 [Example 520, 2-cyclopropyl-N-[4-[4-[4-[(2,6-difluorophenyl)methyl]-5-oxo-1,2,4-triazol-1-yl]phenoxy]-2-pyridyl]acetamide]",100 to 1000 nM,–,–
"Cc1cc(-n2ncn(Cc3c(F)cccc3F)c2=O)ccc1Oc1cc(NC23CC(C#N)(C2)C3)ncc1F [Example 308, 3-((4-(4-(4-(2,6-difluorobenzyl)-5-oxo-4,5-dihydro-1H-1,2,4-triazol-1-yl)-2-methylphenoxy)-5-fluoropyridin-2-yl)amino)bicyclo[1.1.1]pentane-1-carbonitrile]",–,100 to 1000 nM,–
"Cc1nc(C(N)=O)sc1Oc1ccc(-n2nc3n(c2=O)[C@H](c2ccccc2)CO3)cc1F [Example 445, (R)-5-(2-fluoro-4-(3-oxo-5-phenyl-5,6-dihydrooxazolo[2,3-c][1,2,4]triazol-2(3H)-yl)phenoxy)-4-methylthiazole-2-carboxamide]",–,< 100 nM,–
"Cc1nc(C(N)=O)sc1Oc1ccc(-n2nc3n(c2=O)[C@H](c2ccccc2F)C[C@@H]3F)cc1F (single isomer, unassigned) [Example 698]",–,–,IC50 [3]: < 100 nM
"Cc1nc(C(N)=O)sc1Oc1ncc(-n2nc3n(c2=O)[C@H](c2ccccc2)CC3)cc1F (single isomer, unassigned) [Example 638]",–,–,IC50 [4]: < 100 nM
"O=c1n(Cc2c(F)cccc2F)cnn1-c1ccc(Oc2ccnc(N3CC(OC(F)(F)F)C3)c2)cc1 [Example 275, 4-(2,6-difluorobenzyl)-2-(4-((2-(3-(trifluoromethoxy)azetidin-1-yl)pyridin-4-yl)oxy)phenyl)-2,4-dihydro-3H-1,2,4-triazol-3-one]",–,100 to 1000 nM,–
"C[C@H]1[C@H](NC(=O)OC(C)(C)C)CN1c1cc(Oc2ccc(-n3ncn(Cc4c(F)cccc4F)c3=O)cc2F)c(F)cn1 [Example 376, tert-butyl ((2S,3R)-1-(4-(4-(4-(2,6-difluorobenzyl)-5-oxo-4,5-dihydro-1H-1,2,4-triazol-1-yl)-2-fluorophenoxy)-5-fluoropyridin-2-yl)-2-methylazetidin-3-yl)carbamate]",–,< 100 nM,–
"O=c1n(Cc2c(F)cccc2F)cnn1-c1ccc(Oc2ccnc(N3CCC34CCC4)c2)cc1 [Example 498, 2-(4-((2-(1-azaspiro[3.3]heptan-1-yl)pyridin-4-yl)oxy)phenyl)-4-(2,6-difluorobenzyl)-2,4-dihydro-3H-1,2,4-triazol-3-one]",100 to 1000 nM,–,–
"CC1(OC(F)(F)F)CN(c2cc(Oc3ccc(-n4ncn(Cc5c(F)cccc5F)c4=O)cc3F)c(F)cn2)C1 [Example 505, 4-(2,6-difluorobenzyl)-2-(3-fluoro-4-((5-fluoro-2-(3-methyl-3-(trifluoromethoxy)azetidin-1-yl)pyridin-4-yl)oxy)phenyl)-2,4-dihydro-3H-1,2,4-triazol-3-one]",< 100 nM,–,–
"Cc1nc(CC(N)=O)sc1Oc1ccc(-n2ncn(Cc3c(F)cccc3F)c2=O)cc1F [Example 168, 2-(5-(4-(4-(2,6-difluorobenzyl)-5-oxo-4,5-dihydro-1H-1,2,4-triazol-1-yl)-2-fluorophenoxy)-4-methylthiazol-2-yl)acetamide]",< 100 nM,–,–
"Cc1nc(N2C[C@H](C#N)[C@@H]2C)sc1Cc1ccc(-n2ncn(Cc3c(F)cccc3F)c2=O)cc1F [Example 61, (2S,3S)-1-(5-(4-(4-(2,6-difluorobenzyl)-5-oxo-4,5-dihydro-1H-1,2,4-triazol-1-yl)-2-fluorobenzyl)-4-methylthiazol-2-yl)-2-methylazetidine-3-carbonitrile formate]",–,–,IC50 [3]: < 100 nM
"N#CC12CC(Nc3cc(Oc4ccc(-n5ncn(Cc6c(F)cccc6F)c5=O)cc4Cl)c(F)cn3)(C1)C2 [Example 392, 3-((4-(2-chloro-4-(4-(2,6-difluorobenzyl)-5-oxo-4,5-dihydro-1H-1,2,4-triazol-1-yl)phenoxy)-5-fluoropyridin-2-yl)amino)bicyclo[1.1.1]pentane-1-carbonitrile]",–,< 100 nM,–
"CCOC(=O)c1cc(C)nn1Cc1ccc(-n2ncn(Cc3c(F)cccc3F)c2=O)cc1F [Example 197, ethyl 1-(4-(4-(2,6-difluorobenzyl)-5-oxo-4,5-dihydro-1H-1,2,4-triazol-1-yl)-2-fluorobenzyl)-3-methyl-1H-pyrazole-5-carboxylate]",< 100 nM,–,–
"COC(=O)c1nc(C)sc1Oc1ccc(-n2ncn(Cc3c(F)cccc3F)c2=O)cc1F [Example 127, methyl 5-(4-(4-(2,6-difluorobenzyl)-5-oxo-4,5-dihydro-1H-1,2,4-triazol-1-yl)-2-fluorophenoxy)-2-methylthiazole-4-carboxylate]",< 100 nM,–,–
"Cc1nc(C#N)sc1Oc1ccc(-n2ncn(Cc3ccccc3C#N)c2=O)cc1F [Example 570, 5-(4-(4-(2-cyanobenzyl)-5-oxo-4,5-dihydro-1H-1,2,4-triazol-1-yl)-2-fluorophenoxy)-4-methylthiazole-2-carbonitrile]",100 to 1000 nM,–,–
"Cc1nc(C2CN(C(=O)OC(C)(C)C)C2)sc1Oc1ccc(-n2ncn(Cc3c(F)cccc3F)c2=O)cc1F [Example 41, tert-butyl 3-(5-(4-(4-(2,6-difluorobenzyl)-5-oxo-4,5-dihydro-1H-1,2,4-triazol-1-yl)-2-fluorophenoxy)-4-methylthiazol-2-yl)azetidine-1-carboxylate]",–,–,IC50 [3]: < 100 nM
"CC1C(C#N)CN1c1nccc(Oc2ccc(-n3ncn(Cc4c(F)cccc4F)c3=O)cc2)c1F (stereo not drawn) [Example 357, 1-(4-(4-(4-(2,6-difluorobenzyl)-5-oxo-4,5-dihydro-1H-1,2,4-triazol-1-yl)phenoxy)-3-fluoropyridin-2-yl)-2-methylazetidine-3-carbonitrile]",–,< 100 nM,–
"Nc1ccccc1Oc1ccc(-n2nc(Cl)n(Cc3ccccc3)c2=O)cc1 [Example 679, 2-(4-(2-aminophenoxy)phenyl)-4-benzyl-5-chloro-2,4-dihydro-3H-1,2,4-tirazol-3-one]",–,–,IC50 [4]: < 100 nM
"CN(c1cc(Oc2ccc(-n3ncn(Cc4c(F)cccc4F)c3=O)cc2)ccn1)C1CCC1 [Example 352, 2-(4-((2-(cyclobutyl(methyl)amino)pyridin-4-yl)oxy)phenyl)-4-(2,6-difluorobenzyl)-2,4-dihydro-3H-1,2,4-triazol-3-one]",–,100 to 1000 nM,–
"CCOC1CN(c2ncc(F)c(Oc3ccc(-n4ncn(Cc5c(F)cccc5F)c4=O)cc3)c2F)C1 [Example 674, 4-(2,6-difluorobenzyl)-2-(4-((2-(3-ethoxyazetidin-1-yl)-3,5-difluoropyridin-4-yl)oxy)phenyl)-2,4-dihydro-3H-1,2,4-triazol-3-one]",–,–,IC50 [4]: < 100 nM
